These results are taken from patent publication US5773423A (priority 1994, dated 1998).

Experiment [1] addresses T1, adenosine uptake sites in rat brain membranes (Rattus norvegicus, UniProt O54698).
T1 sequence (O54698 1-457): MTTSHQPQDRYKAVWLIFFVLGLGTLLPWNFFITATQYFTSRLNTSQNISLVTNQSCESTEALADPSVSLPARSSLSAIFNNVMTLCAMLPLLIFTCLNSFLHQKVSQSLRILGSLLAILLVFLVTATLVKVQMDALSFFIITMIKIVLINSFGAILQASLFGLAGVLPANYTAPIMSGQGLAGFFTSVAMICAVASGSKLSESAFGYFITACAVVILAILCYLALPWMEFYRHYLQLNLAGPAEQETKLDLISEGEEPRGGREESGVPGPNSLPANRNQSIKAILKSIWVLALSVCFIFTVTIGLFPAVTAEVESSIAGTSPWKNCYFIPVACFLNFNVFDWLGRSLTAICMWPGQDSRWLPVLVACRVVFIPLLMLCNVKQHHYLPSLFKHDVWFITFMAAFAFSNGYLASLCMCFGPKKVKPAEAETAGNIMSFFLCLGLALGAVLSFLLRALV
Kind of experiment: Competition for [3H]NBTI binding at adenosine uptake sites in rat striatal membranes. As to conditions: for Ki: read-out: Ki (NBTI), 0.3 nM [3H]NBTI, 30 min at 23° C., pH 7.4.

The target in experiment [2] is T2, A3 adenosine receptors in mouse brain membranes (Mus musculus, UniProt Q61618).
T2 construct: in mouse brain membranes; from tissue; host or cells: NIH Swiss mouse brain region membranes (cerebellum for the Kd/Bmax)
T2 sequence (Q61618 1-319): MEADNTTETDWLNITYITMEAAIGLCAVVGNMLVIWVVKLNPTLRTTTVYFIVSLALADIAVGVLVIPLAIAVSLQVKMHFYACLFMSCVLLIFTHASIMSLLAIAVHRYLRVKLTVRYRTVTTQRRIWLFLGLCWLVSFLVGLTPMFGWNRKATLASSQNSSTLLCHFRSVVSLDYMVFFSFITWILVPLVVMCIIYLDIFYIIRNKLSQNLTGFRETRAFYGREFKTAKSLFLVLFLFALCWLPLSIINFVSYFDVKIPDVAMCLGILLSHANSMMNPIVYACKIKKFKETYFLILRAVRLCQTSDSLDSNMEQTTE
The experiment is described as follows: [125I]AB-MECA saturation binding to A3 receptors in mouse brain membranes in the presence of 100 nM CPX.

Experiment [3] addresses T3, A1 and A3 adenosine receptors in mouse brain membranes (Mus musculus, UniProt Q60612).
T3 sequence (Q60612 1-326): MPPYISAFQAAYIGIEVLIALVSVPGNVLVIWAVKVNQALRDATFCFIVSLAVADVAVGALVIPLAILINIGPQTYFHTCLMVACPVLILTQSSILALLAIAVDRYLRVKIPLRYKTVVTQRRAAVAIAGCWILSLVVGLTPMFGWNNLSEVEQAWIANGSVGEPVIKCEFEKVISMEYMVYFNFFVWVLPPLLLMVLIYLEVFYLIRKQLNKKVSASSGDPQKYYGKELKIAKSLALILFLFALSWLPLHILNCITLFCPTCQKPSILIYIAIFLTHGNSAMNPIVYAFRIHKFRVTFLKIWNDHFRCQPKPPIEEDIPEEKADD

Experiment [4] deals with A1 and A3 adenosine receptors in mouse brain membranes.
The target of experiment [5] is T4, A3 adenosine receptors in rat brain membranes (Rattus norvegicus, UniProt P28647).
T4 sequence (P28647 1-320): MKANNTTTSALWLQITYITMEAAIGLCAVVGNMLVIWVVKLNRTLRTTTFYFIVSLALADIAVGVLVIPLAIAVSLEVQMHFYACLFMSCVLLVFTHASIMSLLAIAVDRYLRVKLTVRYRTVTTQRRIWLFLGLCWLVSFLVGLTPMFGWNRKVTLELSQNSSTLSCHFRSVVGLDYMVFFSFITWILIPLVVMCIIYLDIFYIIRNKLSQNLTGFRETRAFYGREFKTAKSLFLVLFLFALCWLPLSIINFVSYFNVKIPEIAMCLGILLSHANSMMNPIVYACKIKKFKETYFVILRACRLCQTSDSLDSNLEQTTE

Experiment [6] deals with T5, A2 receptors from rat striatal membranes (Rattus norvegicus, UniProt P30543).
T5 construct: Rat cerebral cortical and striatal membranes were prepared; from tissue; host or cells: rat striatal membranes
The note with it: Table 2, footnotes d/e: literature; read-out: Ki (A2); cited from earlier work.

Experiment [7] concerns the target T6, A1 receptors from rat brain membranes (Rattus norvegicus, UniProt P25099).
T6 construct: Rat cerebral cortical and striatal membranes were prepared; from tissue; host or cells: rat brain (cerebral cortical) membranes
T6 sequence (P25099 1-326): T3 sequence (Q60612 1-326) with E151V, A155D, I157R, E316D, I319L, D325E
Kind of experiment: biochemical. The experiment is classed as binding.

Experiment [8] deals with T5, A2 receptors from rat striatal membranes. Kind of experiment: Radioligand binding at A2 (A2a) receptors, displacement of [3H]CGS 21680 (or [3H]NECA with 50 nM CPA) from rat striatal membranes. For orientation: Loss of bound radioactivity is the signal in a displacement assay; it reports binding, not function.
In experiment [9] the test system is locomotor activity in mice. Kind of experiment: Locomotor activity in mice (open field, Digiscan activity monitor). Type of experiment: in vivo, mouse (NIH Swiss).
Experiment [10] addresses T7, rat A3 receptors (Rattus norvegicus, UniProt P28647).
T7 construct: expressed in transfected cells; host or cells: CHO cells, transfected (the IC50); RBL-2H3 rat mast cells (endogenous) also named
T7 sequence (P28647 1-320): T4 sequence (P28647 1-320)
The experiment is described as follows: Irreversible inhibition of radioligand binding at rat A3 receptors after preincubation.

The subject of experiment [11] is locomotor activity in mice. The note with it: CSC 1 mg/kg, shown earlier; cited from earlier work.
For experiment [12], the system named is cardiovascular parameters in rats. The experiment is classed as in vivo, rat. As to conditions: 0.1 mg/kg i.p.
Protocol: Rats (each weighing 300-340 g) were lightly anesthetized using 1.5-2% halothane. They were monitored for heart rate with a tail sensor and blood pressure using the tail cuff method. Peripheral blood flow (scalp) was monitored using a Perimed laser Doppler blood flow apparatus, with a narrow diameter probe placed in contact with the shaved skin above the center of the cranium. A small amount of clear gel was applied to maintain uniform transmission of light. Body temperature was measured using a rectal probe. Respiratory rate was also recorded. Measurements were made at regular intervals: every 2 min for the first ten min period, and every five min thereafter, until 30 min, at which time a 30 min interval was used, until 90 min. […] Drugs were dissolved in a vehicle consisting of an 80:20 mixture of Alkamuls EL-620 and saline, pH 7.4. […] When administered alone, the agonist was given at the beginning of the monitoring period. When coadministered with an antagonist, the antagonist was given at the beginning of the monitoring period, and the agonist was given after 10 min.
Where [13] appears, read: Table 2, [3H]PIA, rat brain membranes, read-out: Ki (A1).
[14] abbreviates: Table 2, [3H]CGS 21680, rat striatal membranes, read-out: Ki (A2).

Each structure is given as a SMILES string. Positions count from the first letter of the chain named. Where two headings read alike, the source gives them in different places.

What is called Ki is the dissociation constant of the complex between target and ligand, obtained from inhibition or displacement. By Kd is commonly meant the concentration at which binding is half-saturated. For orientation: IC50 means the concentration that gives 50% inhibition. Lower therefore signals inhibition by little substance. The ED50 is the dose at which the effect has come halfway, by size or by number of responders.

T5 sequence (P30543 whole entry): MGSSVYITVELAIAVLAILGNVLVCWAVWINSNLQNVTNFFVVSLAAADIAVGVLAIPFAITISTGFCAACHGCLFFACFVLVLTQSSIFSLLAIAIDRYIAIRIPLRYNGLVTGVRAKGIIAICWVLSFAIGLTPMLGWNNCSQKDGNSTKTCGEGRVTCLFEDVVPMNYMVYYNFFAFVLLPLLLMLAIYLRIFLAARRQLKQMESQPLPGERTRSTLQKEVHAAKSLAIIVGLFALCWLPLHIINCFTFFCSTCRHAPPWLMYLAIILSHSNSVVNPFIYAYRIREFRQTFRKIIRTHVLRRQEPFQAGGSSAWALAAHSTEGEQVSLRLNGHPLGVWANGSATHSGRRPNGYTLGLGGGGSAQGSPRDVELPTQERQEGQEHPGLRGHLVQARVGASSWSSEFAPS

With `OC[C@H]1O[C@@H](n2cnc3c(NCc4ccccc4)ncnc32)[C@H](O)[C@@H]1O` [Compound 7, N^6 -benzyladenosine, reference compound], the Ki in experiment [1] turned out to be 0.203 ± 0.093 µM.

Take `CNC(=O)[C@H]1O[C@@H](n2cnc3c(NCc4ccc(N)c([125I])c4)ncnc32)[C@H](O)[C@@H]1O` [[^125 I]AB-MECA, [^125 I]4-amino-3-iodobenzyladenosine-5'-N-methyluronamide]: in experiment [2] (0.4 nM [125I]AB-MECA), the “A3 share of total specific binding, cerebellum and striatum” value is 18 % of total specific binding; the “A3 share of total specific binding, hippocampus and cortex” value is 7-9 % of total specific binding. Moreover, the Kd in experiment [2] (mouse cerebellar membranes) amounted to 1.39 nM. The Bmax cerebellum in experiment [3] (cerebellum) is 120±5 fmol specifically bound/mg protein. Also, the Bmax cortex in experiment [3] (cortex) was 159±15 fmol specifically bound/mg protein. Moreover, the Bmax hippocampus in experiment [3] (hippocampus) was 215±17 fmol specifically bound/mg protein. The “Kd values (Scatchard analysis)” value in [3] (regions of mouse brain) was in the range of 1.9 to 2.8 nM. Also, the Bmax striatum in experiment [3] (striatum) is 123±23 fmol specifically bound/mg protein. For the same compound, the “specific binding of total binding” value in [4] was “ca. 70 % of total binding”. In addition, in [4] (in the presence of 40 μM R-PIA), the nonspecific binding entry is “approximately 30 % of the total binding”. Besides, in experiment [5], the “Bmax in rat brain membranes” value is recorded as 43 fmol/mg protein. The Ki in experiment [6] is 197 nM.

Take `CNC(=O)[C@H]1O[C@@H](n2cnc3c(NCc4cccc(I)c4)nc(SC)nc32)[C@H](O)[C@@H]1O` [Example 46, N^6-(3-iodobenzyl)-2-methylthio-9-[5-(methylamido)-β-D-ribofuranosyl]-adenine]: the Ki in experiment [7] (setting [13]) worked out at 2140 ± 100 nM; in experiment [8] (setting [14]), 3210 ± 1360 nM; in experiment [1], 49.5 µM. The “Ratio of Ki (NBTI)/Ki ([125I]AB-MECA)” value in experiment [1] (selectivity for cloned rat A3 receptors vs adenosine uptake site) is on record as 22,000.

Regarding `CCNC(=O)[C@H]1O[C@@H](n2cnc3c(N)nc(NCCc4ccc(CCC(=O)NCCN)cc4)nc32)[C@H](O)[C@@H]1O` [APEC, reference compound], the Ki in [7] (setting [13]) was found to be 400 nM; in experiment [8] (setting [14]) it was 5.7 nM. Further, the “reduction in locomotor activity at chosen dose” value in experiment [9] (APEC 16 μg/kg, 3-IB-MECA 100 μg/kg i.p.) is recorded as “ca. 50%”.

In the case of `CNC(=O)[C@H]1O[C@@H](n2cnc3c(NCc4cccc(I)c4)nc(Cl)nc32)[C@H](O)[C@@H]1O` [Example 44, 2-chloro-N^6-(3-iodobenzyl)-9-[5-(methylamido)-β-D-ribofuranosyl]-adenine], the Ki in experiment [1] turned out to be 15.2 µM.

As to `CNC(=O)[C@H]1O[C@@H](n2cnc3c(NCc4cccc(N=C=S)c4)ncnc32)[C@H](O)[C@@H]1O` [N^6-(3-isothiocyanatobenzyl)adenosine-5'-N-methyluronamide], in [7], the affinity corresponds to a Ki of 145 nM and the “irreversible inhibition at rat A1 receptors (in words)” value is given as “not at rat A1 or A2a receptors”. Moreover, in [8], the Ki stood at 272 nM and the “irreversible inhibition at rat A2a receptors (in words)” value is “not at rat A1 or A2a receptors”. In experiment [10], the IC50 is 50 nM and the “Kd of remaining A3 receptor sites (in words)” value is given as “No change was observed in the Kd value”. The “irreversible inhibition of A3 binding (in words)” value in experiment [10] (CHO cells or RBL-2H3 mast cells) is “irreversible inhibition of radioligand binding at rat A3 receptors”.

Regarding `CCCn1c(=O)c2[nH]c(C3CCCC3)nc2n(CCC)c1=O` [Compound 130, 8-cyclopentyl-1,3-dipropylxanthine], the “displacement of specific [125I]AB-MECA binding (in words)” value in [3] is “completely displaced most but not all of the high affinity [^125 I]AB-MECA binding”. Also, the “Ki for displacement of [125I]AB-MECA binding” value in experiment [3] (sigmoidal competition curves) fell in the range of 2 to 8 nM.

With `Cn1c(=O)c2c(nc(C=Cc3cccc(Cl)c3)n2C)n(C)c1=O` [Compound 134, 8-(3-chlorostyryl)caffeine], the “reversal of 3-IB-MECA-mediated locomotor depression (in words)” value in experiment [9] (CSC 1 mg/kg) is recorded as “small, statistically insignificant reversal”. Further, the “displacement of specific [125I]AB-MECA binding (in words)” value in [3] is “failed to displace specific binding of [^125 I]AB-MECA”. Moreover, the “reversal of APEC-elicited behavioral depression (in words)” value in experiment [11] is given as “complete reversal”.

For the compound `OC[C@H]1O[C@@H](n2cnc3c(NC4CCCC4)ncnc32)[C@H](O)[C@@H]1O` [Compound 4, N^6 -cyclopentyladenosine, reference compound], in [9] (Mus musculus, ip, read-out: ED50 for locomotor depression), the ED50 came to 0.1 mg/kg. Further, the “duration of bradycardiac effect” value in [12] (entire monitoring period) came to 90 min. For the same compound, in experiment [12] (from initial value), the “drop in blood pressure” value came to 50% and the “drop in heart rate” value is reported as 20%. Besides, the “time at which hypotensive effect begins to wane” value in experiment [12] (post-injection) is recorded as “approximately 20 min”.
